For one assay, the system named is Obese Rats (DIO). As to the kind of experiment: Chronical treatment of obese rats (DIO). The class given is in vivo. The following applies: 50 mg/Kg i.p., one injection per day for 9 days, followed for 10 more days, compared to Saline, data only in Figures 1 to 4. The procedure: Obese Rats (DIO) were treated for 9 days intraperitoneally (i.p.) one injection per day with Saline, with BD-1063 at 50 mg/Kg and PRE-084 at 25 mg /Kg, a well known […]. During that time each day and at some points during the following 10 days the weight giving the difference in weight (referring to the day of starting the treatment) was determined, as were the blood glucose levels, blood level of cholesterol, blood level of Triglycerides (TG).

Assay [1] has as its system a selection of other relevant receptors. The following applies: according to US2003/0171347A1, page 7, table2 and page 8, table 3; cited from earlier work.

Turning to `CN1CCN(CCc2ccc(Cl)c(Cl)c2)CC1` [BD-1063, 1-(3,4-dichlorophenethyl)-4-methylpiperazine], the “effect on the weight (in weight difference), blood glucose levels, blood level of cholesterol, blood level of Triglycerides (TG)” value with Obese Rats (DIO) is recorded as “highly effective”. In addition, the “binding to a selection of other relevant receptors” value in assay [1] is on record as “no or only slight binding”.
`CN(C)CCN(C)CCc1ccc(Cl)c(Cl)c1` [BD-1047, N1-(3,4-dichlorophenethyl)-N1,N2,N2-trimethylethane-1,2-diamine]: the “binding to a selection of other relevant receptors” value in assay [1] is “no or only slight binding”.

The values are drawn from patent EP1634598A1, “Use of piperazine derivatives and analogues for the manufacture of a medicament for the prophylaxis and/or treatment of disorders of food ingestion” (LABORATORIOS DEL DR. ESTEVE, S.A., priority 2004, dated 2006).
